Biological target: T1, Human TREX1 enzyme (amino acids 1-242) (Homo sapiens, UniProt Q9NSU2)
T1 construct: Human TREX1 enzyme (amino acids 1-242)
T1 sequence (Q9NSU2 1-242): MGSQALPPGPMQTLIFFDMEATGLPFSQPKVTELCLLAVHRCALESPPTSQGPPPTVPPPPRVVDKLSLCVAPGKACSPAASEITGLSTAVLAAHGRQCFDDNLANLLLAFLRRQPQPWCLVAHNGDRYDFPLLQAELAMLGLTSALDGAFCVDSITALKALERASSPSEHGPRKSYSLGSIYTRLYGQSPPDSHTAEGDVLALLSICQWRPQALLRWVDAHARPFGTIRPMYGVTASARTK
Assay: Human TREX1 enzymatic assay with dsDNA native oligonucleotide (Picogreen fluorescence)
Format: biochemical
Conditions: 2 mM dithiothreitol in assay buffer; 50 nM dsDNA oligonucleotide; 30 min preincubation at 25° C.; read-out: TREX1/Human + DTT IC50 AVG
Outline: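 Remaining dsDNA quantified by Picogreen fluorescence after EDTA quench, with no-enzyme and DMSO wells as controls. Reactions used 50 nM annealed oligonucleotide for 5–15 min at 25 °C, after a 30 min compound–enzyme preincubation (0.8–0.16 nM TREX1; 2% DMSO; pH 7.7 Tris, 5 mM MgCl2).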

Compound | IC50
COc1cc(-c2nc3ccc(C(=O)NC4COC4)cc3n2C2(C)COC2)c(F)c(O)c1O [Example 254, 2-(2-fluoro-3,4-dihydroxy-5-methoxyphenyl)-1-(3-methyloxetan-3-yl)-N-(oxetan-3-yl)-1H-benzo[d]imidazole-6-carboxamide] | ≤ 100 nM
COc1cc(-c2nc3ccc(-c4ncccn4)cc3n2C2(C)COC2)c(F)c(O)c1O [Example 267, 3-fluoro-6-methoxy-4-(1-(3-methyloxetan-3-yl)-6-(pyrimidin-2-yl)-1H-benzo[d]imidazol-2-yl)benzene-1,2-diol] | ≤ 100 nM
COc1c(O)c(O)c(C)c(-c2nc3ccccc3n2C2CCC2)c1F [Example 323, 4-(1-cyclobutyl-1H-benzo[d]imidazol-2-yl)-5-fluoro-6-methoxy-3-methylbenzene-1,2-diol] | 1000 to 10000 nM
COc1cc(-c2nc3cnccc3n2C2COC2)cc(O)c1O [Example 47, 3-methoxy-5-(1-(oxetan-3-yl)-1H-imidazo[4,5-c]pyridin-2-yl)benzene-1,2-diol] | 10000 to 100000 nM
COc1cc(-c2nc3cc(-c4ccccn4)ccc3[nH]2)c(C)c(O)c1O [Example 289, 6-methoxy-3-methyl-4-[5-(pyridin-2-yl)-1H-1,3-benzodiazol-2-yl]benzene-1,2-diol] | 1000 to 10000 nM
COc1cc(-c2nc3cc(N4CCN(C)C4=O)ccc3n2C2(C)COC2)c(F)c(O)c1O [Example 197, 1-(2-(2-fluoro-3,4-dihydroxy-5-methoxyphenyl)-1-(3-methyloxetan-3-yl)-1H-benzo[d]imidazol-5-yl)-3-methylimidazolidin-2-one] | 100 to 1000 nM
COc1cc(-c2nc3ccc(N4CCOCC4)cc3n2C2CCOC2)c(C)c(O)c1O (stereo not drawn) [Example 286, 6-methoxy-3-methyl-4-(6-morpholino-1-(tetrahydrofuran-3-yl)-1H-benzo[d]imidazol-2-yl)benzene-1,2-diol] | 1000 to 10000 nM
COc1cc(-c2nc3ccc(C(=O)NCC(F)F)cc3n2C2(C)COC2)c(F)c(O)c1O [Example 251, N-(2,2-difluoroethyl)-2-(2-fluoro-3,4-dihydroxy-5-methoxyphenyl)-1-(3-methyloxetan-3-yl)-1H-1,3-benzodiazole-6-carboxamide] | ≤ 100 nM
COc1cc(-c2nc3ccc(-c4ncc(F)cn4)cc3n2C2(C)COC2)c(F)c(O)c1O [Example 270, 3-fluoro-4-(6-(5-fluoropyrimidin-2-yl)-1-(3-methyloxetan-3-yl)-1H-benzo[d]imidazol-2-yl)-6-methoxybenzene-1,2-diol] | ≤ 100 nM
COc1cc(-c2nc3ccc(C(=O)NC4CCN(C)C4)cc3n2C2(C)COC2)c(F)c(O)c1O (stereo not drawn) [Example 257, 2-(2-fluoro-3,4-dihydroxy-5-methoxyphenyl)-1-(3-methyloxetan-3-yl)-N-(1-methylpyrrolidin-3-yl)-1H-benzo[d]imidazole-6-carboxamide] | 100 to 1000 nM
COc1cc(-c2nc3ccncc3n2C2(C)COC2)c(F)c(O)c1O [Example 230, 3-fluoro-6-methoxy-4-[3(3-methyloxetan-3-yl)-3H-imidazo[4,5-c]pyridin-2-yl]benzene-1,2-diol] | 100 to 1000 nM
Oc1cc(-c2nc3ccccc3n2C2CCC2)cc(OC(F)F)c1O [Example 333, 5-(1-cyclobutyl-1H-benzo[d]imidazol-2-yl)-3-(difluoromethoxy)benzene-1,2-diol] | > 100000 nM
COc1cc(-c2nc3ccc(-c4ccn[nH]4)cc3n2C2(C)COC2)c(F)c(O)c1O [Example 295, 3-fluoro-6-methoxy-4-(1-(3-methyloxetan-3-yl)-6-(1H-pyrazol-5-yl)-1H-benzo[d]imidazol-2-yl)benzene-1,2-diol] | ≤ 100 nM
COc1c(C)c(-c2nc3cc(N4CCC4)ccc3n2C2COC2)c(F)c(O)c1O [Example 199, 4-[5-(azetidin-1-yl)-1-(oxetan-3-yl)-1H-1,3-benzodiazol-2-yl]-3-fluoro-6-methoxy-5-methylbenzene-1,2-diol] | 1000 to 10000 nM
COc1cc(-c2nc3cc(NC(=O)c4cccnc4)ccc3n2C2(C)COC2)c(F)c(O)c1O [Example 304, N-(2-(2-fluoro-3,4-dihydroxy-5-methoxyphenyl)-1-(3-methyloxetan-3-yl)-1H-benzo[d]imidazol-5-yl)nicotinamide] | 100 to 1000 nM
COc1cc(-c2nc3ccccc3n2C2(C)COC2)c(C)c(O)c1O [Example 169, 6-methoxy-3-methyl-4-(1-(3-methyloxetan-3-yl)-1H-benzo[d]imidazol-2-yl)benzene-1,2-diol] | 100 to 1000 nM
COc1cc(-c2nc3cc(N4CCN(C)CC4=O)ccc3n2C2(C)COC2)c(F)c(O)c1O [Example 273, 1-(2-(2-fluoro-3,4-dihydroxy-5-methoxyphenyl)-1-(3-methyloxetan-3-yl)-1H-benzo[d]imidazol-5-yl)-4-methylpiperazin-2-one] | 100 to 1000 nM
COc1cc(-c2nc3cc(N)ccc3n2C2CCC2)c(C)c(O)c1O [Example 235, 4-(5-amino-1-cyclobutyl-1H-benzo[d]imidazol-2-yl)-6-methoxy-3-methylbenzene-1,2-diol] | 100 to 1000 nM
COc1cc(-c2nc3ccccc3n2C(C)(C)C)c(C)c(O)c1O [Example 227, 4-(1-(tert-butyl)-1H-benzo[d]imidazol-2-yl)-6-methoxy-3-methylbenzene-1,2-diol] | 100 to 1000 nM

Second part, the molecule after the results:

IC50 | Compound
> 100000 nM | COc1cc(-c2nc3cc(N4CCN(C5CCCCC5)CC4)ccc3[nH]2)cc(O)c1O [Example 57, 5-(5-(4-cyclohexylpiperazin-1-yl)-1H-benzo[d]imidazol-2-yl)-3-methoxybenzene-1,2-diol]
10000 to 100000 nM | COc1cc(-c2nc3cc(N4CCN(CCF)CC4)ccc3[nH]2)cc(O)c1O [Example 66, 5-(5-(4-(2-fluoroethyl)piperazin-1-yl)-1H-benzo[d]imidazol-2-yl)-3-methoxybenzene-1,2-diol]
10000 to 100000 nM | COc1cc(-c2nc3cc(N4CCN(C(C)=O)CC4)ccc3n2C(C)=O)cc(O)c1O [Example 27, 1-(4-(1-acetyl-2-(3,4-dihydroxy-5-methoxyphenyl)-1H-benzo[d]imidazol-5-yl)piperazin-1-yl)ethanone]
1000 to 10000 nM | COc1cc(-c2nc3cc(N4CCC4)c(C)cc3[nH]2)cc(O)c1O [Example 164, 5-(5-(azetidin-1-yl)-6-methyl-1H-benzo[d]imidazol-2-yl)-3-methoxybenzene-1,2-diol]
> 100000 nM | COc1cc(-c2nc3cc(N4CCNCC4)ccc3[nH]2)cc(O)c1O [Example 18, 3-methoxy-5-(5-(piperazin-1-yl)-1H-benzo[d]imidazol-2-yl)benzene-1,2-diol]
> 100000 nM | COc1cc(-c2nc3cc(N4CCN(C(=O)c5cccc(C(C)(C)C)c5)CC4)ccc3[nH]2)cc(O)c1O [Example 134, (3-(tert-butyl)phenyl)(4-(2-(3,4-dihydroxy-5-methoxyphenyl)-1H-benzo[d]imidazol-5-yl)piperazin-1-yl)methanone]
10000 to 100000 nM | COc1cc(-c2nc3cc(N4CCN(C)CC4)ccc3n2C2COC2)cc(O)c1O [Example 60, 3-methoxy-5-(5-(4-methylpiperazin-1-yl)-1-(oxetan-3-yl)-1H-benzo[d]imidazol-2-yl)benzene-1,2-diol]
> 100000 nM | COc1cc(-c2nc3cc(N4CCN(C(=O)c5ccccc5C(F)(F)F)CC4)ccc3[nH]2)cc(O)c1O [Example 104, (4-(2-(3,4-dihydroxy-5-methoxyphenyl)-1H-benzo[d]imidazol-5-yl)piperazin-1-yl)(2-(trifluoromethyl)phenyl)methanone]

From patent US20230234943A1, “TREX1 INHIBITORS AND USES THEREOF” (Tempest Therapeutics, Inc., priority 2020, published 2023)
